Measured values published in ChEMBL document CHEMBL3588825, “Identification of Oxaphenalenone Ketals from the Ascomycete Fungus Neonectria sp” (J Nat Prod, 2015).
Calls of active or inactive are those of the source.

Legend:
Format in all cases: functional, cell-based
A549 = experiment: Cytotoxicity against human A549 cells at 50 uM after 90 mins by MTS assay
HeLa = experiment: Cytotoxicity against human HeLa cells at 50 uM after 90 mins by MTS assay
SW480 = experiment: Cytotoxicity against human SW480 cells at 50 uM after 90 mins by MTS assay
T-24 = experiment: Cytotoxicity against human T24 cells at 50 uM after 90 mins by MTS assay
HCT-116 = experiment: Cytotoxicity against human HCT116 cells at 50 uM after 90 mins by MTS assay
MCF7 = experiment: Cytotoxicity against human MCF7 cells at 50 uM after 90 mins by MTS assay

Measured: Activity

COc1cc2c3c4c(c(O)cc(C)c14)C(=O)O[C@@H]3[C@@H]1C[C@@H](C)O[C@]1(C[C@H]1CCC(=O)O1)O2
inactive: A549 | HeLa | SW480 | T-24 | HCT-116 | MCF7
